Assay [1] deals with Colletotrichum acutatum. Put plainly: Fungicidal activity against Colletotrichum acutatum infested Citrus sinensis assessed as total fruit weight per plant at 0.056 g/l applied through airblast sprayer during white bud and hollow ball flower stages measured after 70 days (Rvb =49.88 kg)s. The format is functional.
Assay [2] deals with Colletotrichum acutatum. Put plainly: Fungicidal activity against Colletotrichum acutatum infested Citrus sinensis assessed as total fruit weight per plant at 0.056 g/l applied through airblast sprayer during green bud and hollow ball flower stages measured after 70 days (Rvb =49.88 kg). The format is functional.
In assay [3] the test system is Colletotrichum acutatum. Put plainly: Fungicidal activity against Colletotrichum acutatum infested Citrus sinensis assessed as total fruit weight per plant at 0.056 g/l applied through airblast sprayer during open flower stage measured after 70 days (Rvb =49.88 kg). The format is functional.
Assay [4] has as its system Colletotrichum acutatum. Put plainly: Fungicidal activity against Colletotrichum acutatum infested Citrus sinensis assessed as total fruit weight per plant at 0.056 g/l applied through airblast sprayer during hollow ball flower stage measured after 70 days (Rvb =49.88 kg). The format is functional.
In assay [5] the test system is Colletotrichum acutatum. Put plainly: Fungicidal activity against Colletotrichum acutatum infested Citrus sinensis assessed as total fruit weight per plant at 0.056 g/l applied through airblast sprayer during green bud until open flower stages measured after 70 days (Rvb =65.90 kg). The format is functional.
The subject of assay [6] is Colletotrichum acutatum. The assay is described as follows: Fungicidal activity against Colletotrichum acutatum infested Citrus sinensis assessed as total fruit weight per plant at 0.056 g/l applied through airblast sprayer during green bud, white bud and hollow ball flower stages measured after 70 days (Rvb =65.90 kg). The format is functional.
Assay [7] has as its system Colletotrichum acutatum. Put plainly: Fungicidal activity against Colletotrichum acutatum infested Citrus sinensis assessed as total fruit weight per plant at 0.056 g/l applied through airblast sprayer during green bud and white bud flower stages measured after 70 days (Rvb =65.90 kg). It is filed as functional.
Assay [8] concerns Colletotrichum acutatum. The assay is described as follows: Fungicidal activity against Colletotrichum acutatum infested Citrus sinensis assessed as total fruit weight per plant at 0.056 g/l applied through airblast sprayer during green bud flower stage measured after 70 days (Rvb =65.90 kg). The format is functional.
For assay [9], the system named is Colletotrichum acutatum. The assay is described as follows: Fungicidal activity against Colletotrichum acutatum infested Citrus sinensis assessed as increase in fruit set at 0.056 g/l applied through airblast sprayer during green bud and white bud flower stages measured after 70 days. It is filed as functional, organism-based.
The test system of assay [10] is Colletotrichum acutatum. Put plainly: Fungicidal activity against Colletotrichum acutatum infested Citrus sinensis assessed as increase in fruit set at 0.056 g/l applied through airblast sprayer during green bud flower stage measured after 70 days. The format is functional, organism-based.
The subject of assay [11] is Colletotrichum acutatum. Put plainly: Fungicidal activity against Colletotrichum acutatum infested Citrus sinensis assessed as reduction in number of symptomatic flowers at 0.056 g/l applied through airblast sprayer during green bud until open flower stages measured after 7 days. The format is functional, organism-based.
The subject of assay [12] is Colletotrichum acutatum. Put plainly: Fungicidal activity against Colletotrichum acutatum infested Citrus sinensis assessed as reduction in number of symptomatic flowers at 0.056 g/l applied through airblast sprayer during green bud, white bud and hollow ball flower stages measured after 7 days. It is filed as functional, organism-based.
The test system of assay [13] is Colletotrichum acutatum. Put plainly: Fungicidal activity against Colletotrichum acutatum infested Citrus sinensis assessed as increase in fruit set at 0.056 g/l applied through airblast sprayer during green bud, white bud and hollow ball flower stages measured after 70 days. The format is functional, organism-based.
The test system of assay [14] is Colletotrichum acutatum. The assay is described as follows: Fungicidal activity against Colletotrichum acutatum infested Citrus sinensis assessed as increase in fruit set at 0.056 g/l applied through airblast sprayer during open flower stage measured after 70 days. The format is functional, organism-based.
The test system of assay [15] is Colletotrichum acutatum. Put plainly: Fungicidal activity against Colletotrichum acutatum infested Citrus sinensis assessed as reduction in symptomatic flowers at 0.056 g/l applied through airblast sprayer during open flower stage measured after 7 days. It is filed as functional, organism-based.
The test system of assay [16] is Colletotrichum acutatum. The assay is described as follows: Fungicidal activity against Colletotrichum acutatum infested Citrus sinensis assessed as reduction in symptomatic flowers at 0.056 g/l applied through airblast sprayer during hollow ball flower stage measured after 7 days. The format is functional, organism-based.
Assay [17] deals with Colletotrichum acutatum. The assay is described as follows: Fungicidal activity against Colletotrichum acutatum infested Citrus sinensis assessed as reduction in symptomatic flowers at 0.056 g/l applied through airblast sprayer during white bud and hollow ball flower stages measured after 7 days. It is filed as functional, organism-based.
Assay [18] has as its system Colletotrichum acutatum. Put plainly: Fungicidal activity against Colletotrichum acutatum infested Citrus sinensis assessed as reduction in symptomatic flowers at 0.056 g/l applied through airblast sprayer during green bud and hollow ball flower stages measured after 7 days. The format is functional, organism-based.
Assay [19] concerns Colletotrichum acutatum. Put plainly: Fungicidal activity against Colletotrichum acutatum infested Citrus sinensis assessed as increase in fruit set at 0.056 g/l applied through airblast sprayer during green bud until open flower stages measured after 70 days. It is filed as functional, organism-based.
In assay [20] the test system is Colletotrichum acutatum. The assay is described as follows: Fungicidal activity against Colletotrichum acutatum infested Citrus sinensis assessed as increase in fruit set at 1.25 g/l applied through airblast sprayer during white bud and hollow ball flower stages measured after 70 days relative to control. The format is functional, organism-based.
For assay [21], the system named is Colletotrichum acutatum. The assay is described as follows: Fungicidal activity against Colletotrichum acutatum infested Citrus sinensis assessed as reduction in number of symptomatic flowers at 1.25 g/l applied through airblast sprayer during green bud, white bud and hollow ball flower stages measured after 7 days. It is filed as functional, organism-based.
Assay [22] relates to Colletotrichum acutatum. The assay is described as follows: Fungicidal activity against Colletotrichum acutatum infested Citrus sinensis assessed as reduction in persistant calyces at 1.25 g/l applied through airblast sprayer during green bud to white ball flower stages measured after 7 days. The format is functional, organism-based.
Assay [23] relates to Colletotrichum acutatum. Put plainly: Fungicidal activity against Colletotrichum acutatum infested Citrus sinensis assessed as reduction in persistant calyces at 1 g/l applied through airblast sprayer during green bud to white ball flower stages measured after 7 days. It is filed as functional, organism-based.
Assay [24] relates to Colletotrichum acutatum. The assay is described as follows: Fungicidal activity against Colletotrichum acutatum infested Citrus sinensis assessed as increase in fruit set percentage at 1.25 g/l applied through airblast sprayer during green bud to white ball flower stages measured after 70 days. The format is functional, organism-based.
Assay [25] concerns Colletotrichum acutatum. Put plainly: Fungicidal activity against Colletotrichum acutatum infested Citrus sinensis assessed as increase in fruit set percentage at 1 g/l applied through airblast sprayer during green bud to white ball flower stages measured after 70 days. The format is functional, organism-based.
Assay [26] has as its system Colletotrichum acutatum. The assay is described as follows: Fungicidal activity against Colletotrichum acutatum infested Citrus sinensis assessed as increase in fruit production per tree at 1.25 g/l applied through airblast sprayer during green bud to white ball flower stages measured after 70 days. The format is functional, organism-based.
Assay [27] has as its system Colletotrichum acutatum. The assay is described as follows: Fungicidal activity against Colletotrichum acutatum infested Citrus sinensis assessed as increase in fruit production per tree at 1 g/l applied through airblast sprayer during green bud to white ball flower stages measured after 70 days. It is filed as functional, organism-based.
For assay [28], the system named is Colletotrichum acutatum. Put plainly: Fungicidal activity against Colletotrichum acutatum infested Citrus sinensis assessed as total fruit weight per plant at 1.25 g/l applied through airblast sprayer during white bud and hollow ball flower stages measured after 70 days (Rvb =49.88 kg). It is filed as functional.
The subject of assay [29] is Colletotrichum acutatum. Put plainly: Fungicidal activity against Colletotrichum acutatum infested Citrus sinensis assessed as total fruit weight per plant at 1.25 g/l applied through airblast sprayer during green bud and hollow ball flower stages measured after 70 days (Rvb =49.88 kg). The format is functional.
Assay [30] concerns Colletotrichum acutatum. The assay is described as follows: Fungicidal activity against Colletotrichum acutatum infested Citrus sinensis assessed as total fruit weight per plant at 1.25 g/l applied through airblast sprayer during open flower stage measured after 70 days (Rvb =49.88 kg). The format is functional.
Assay [31] has as its system Colletotrichum acutatum. The assay is described as follows: Fungicidal activity against Colletotrichum acutatum infested Citrus sinensis assessed as total fruit weight per plant at 1.25 g/l applied through airblast sprayer during hollow ball flower stage measured after 70 days (Rvb =49.88 kg). It is filed as functional.
Assay [32] deals with Colletotrichum acutatum. Put plainly: Fungicidal activity against Colletotrichum acutatum infested Citrus sinensis assessed as total fruit weight per plant at 1.25 g/l applied through airblast sprayer during green bud until open flower stages measured after 70 days (Rvb =65.90 kg). It is filed as functional.
Assay [33] deals with Colletotrichum acutatum. Put plainly: Fungicidal activity against Colletotrichum acutatum infested Citrus sinensis assessed as total fruit weight per plant at 1.25 g/l applied through airblast sprayer during green bud, white bud and hollow ball flower stages measured after 70 days (Rvb =65.90 kg). The format is functional.
Assay [34] relates to Colletotrichum acutatum. The assay is described as follows: Fungicidal activity against Colletotrichum acutatum infested Citrus sinensis assessed as total fruit weight per plant at 1.25 g/l applied through airblast sprayer during green bud and white bud flower stages measured after 70 days (Rvb =65.90 kg). It is filed as functional.
In assay [35] the test system is Colletotrichum acutatum. The assay is described as follows: Fungicidal activity against Colletotrichum acutatum infested Citrus sinensis assessed as total fruit weight per plant at 1.25 g/l applied through airblast sprayer during green bud flower stage measured after 70 days (Rvb =65.90 kg). The format is functional.
In assay [36] the test system is Colletotrichum acutatum. Put plainly: Fungicidal activity against Colletotrichum acutatum infested Citrus sinensis assessed as increase in fruit set at 1.25 g/l applied through airblast sprayer during green bud, white bud and hollow ball flower stages measured after 70 days. It is filed as functional, organism-based.
The test system of assay [37] is Colletotrichum acutatum. The assay is described as follows: Fungicidal activity against Colletotrichum acutatum infested Citrus sinensis assessed as increase in fruit set at 1.25 g/l applied through airblast sprayer during open flower stage measured after 70 days. The format is functional, organism-based.
The test system of assay [38] is Colletotrichum acutatum. The assay is described as follows: Fungicidal activity against Colletotrichum acutatum infested Citrus sinensis assessed as reduction in symptomatic flowers at 1.25 g/l applied through airblast sprayer during open flower stage measured after 7 days. It is filed as functional, organism-based.
Assay [39] relates to Colletotrichum acutatum. The assay is described as follows: Fungicidal activity against Colletotrichum acutatum infested Citrus sinensis assessed as reduction in symptomatic flowers at 1.25 g/l applied through airblast sprayer during hollow ball flower stage measured after 7 days. The format is functional, organism-based.
For assay [40], the system named is Colletotrichum acutatum. Put plainly: Fungicidal activity against Colletotrichum acutatum infested Citrus sinensis assessed as reduction in symptomatic flowers at 1.25 g/l applied through airblast sprayer during white bud and hollow ball flower stages measured after 7 days. It is filed as functional, organism-based.
Assay [41] deals with Colletotrichum acutatum. The assay is described as follows: Fungicidal activity against Colletotrichum acutatum infested Citrus sinensis assessed as reduction in symptomatic flowers at 1.25 g/l applied through airblast sprayer during green bud and hollow ball flower stages measured after 7 days. The format is functional, organism-based.

The structures appear in SMILES notation. Active and inactive are the calls of the source. The calls are words filed in the database; no cut-off is given here.

In the case of `CC1COC(Cn2cncn2)(c2ccc(Oc3ccc(Cl)cc3)cc2Cl)O1` (stereo unspecified) [DIFENOCONAZOLE], the Activity with Colletotrichum acutatum [1] worked out at 32.7 kg; with Colletotrichum acutatum [2] it was 53.5 kg; in the assay with Colletotrichum acutatum [3] it was 38 kg; in the assay with Colletotrichum acutatum [4] it was 71.4 kg; in the assay with Colletotrichum acutatum [5] it was 47.2 kg; in the assay with Colletotrichum acutatum [6], 53.9 kg. The Activity was 38.7 kg in the assay with Colletotrichum acutatum [7] and 59.2 kg with Colletotrichum acutatum [8]. Also, the result in the assay on Colletotrichum acutatum [9], in the assay with Colletotrichum acutatum [10], in the assay on Colletotrichum acutatum [13], in the assay on Colletotrichum acutatum [14], in the assay with Colletotrichum acutatum [15] and in the assay with Colletotrichum acutatum [16] was inactive. In the assay on Colletotrichum acutatum [19], the outcome was inactive. Further, the result in the assay on Colletotrichum acutatum [11], in the assay on Colletotrichum acutatum [12], in the assay on Colletotrichum acutatum [17] and in the assay on Colletotrichum acutatum [18] was Active.

Take `O=C1c2ccccc2C(=O)N1SC(Cl)(Cl)Cl` [FOLPET]: the result in the assay with Colletotrichum acutatum [20], in the assay on Colletotrichum acutatum [21], with Colletotrichum acutatum [22], in the assay on Colletotrichum acutatum [23], with Colletotrichum acutatum [24] and with Colletotrichum acutatum [25] was Active. Besides, the outcome with Colletotrichum acutatum [26], in the assay on Colletotrichum acutatum [27], with Colletotrichum acutatum [36], with Colletotrichum acutatum [39], in the assay on Colletotrichum acutatum [40] and in the assay with Colletotrichum acutatum [41] was Active. The Activity was 59.6 kg with Colletotrichum acutatum [28]; 46 kg with Colletotrichum acutatum [29]; 61.2 kg in the assay on Colletotrichum acutatum [30]; 48.2 kg with Colletotrichum acutatum [31]; 86.9 kg in the assay on Colletotrichum acutatum [32]; 87.7 kg in the assay with Colletotrichum acutatum [33]. Besides, the values for the Activity with Colletotrichum acutatum [34] and in the assay with Colletotrichum acutatum [35] were 53.5 kg and 48.7 kg, respectively. In addition, the outcome in the assay with Colletotrichum acutatum [37] and with Colletotrichum acutatum [38] was inactive.

Source of the values: ChEMBL document CHEMBL3044960, “Evaluation of fungicide applications to sweet orange at different flowering stages for control of postbloom fruit drop caused by Colletotrichum acutatum” (2008).
